According to patent US20260152503A1, “SPIROBICYCLIC COMPOUNDS” (ACERAND THERAPEUTICS (HONG KONG) LIMITED, priority 2022, published 2026):

What was measured:
FGFR2 = target: T1, FGFR2 (Homo sapiens, UniProt P21802, K310R/N549K); experiment: pERK potency assay (In Cell ELISA), AN3CA cells; type: cell-based; conditions: for IC50: pERK, AN3CA (FGFR2/k310R, N549K) cells, 3 hours; for FGFR1 IC50/FGFR2 IC50 / FGFR3 IC50/FGFR2 IC50: selectivity ratio, pERK potency; for FGFR1 IC50/FGFR2 IC50: FGFR2 relative to FGFR1; for FGFR3 IC50/FGFR2 IC50: FGFR2 relative to FGFR3
T1 construct: in FGFR aberrations of AN3CA (FGFR2/k310R, N549K); host or cells: AN3CA
T1 sequence (P21802 22-821 K310R/N549K): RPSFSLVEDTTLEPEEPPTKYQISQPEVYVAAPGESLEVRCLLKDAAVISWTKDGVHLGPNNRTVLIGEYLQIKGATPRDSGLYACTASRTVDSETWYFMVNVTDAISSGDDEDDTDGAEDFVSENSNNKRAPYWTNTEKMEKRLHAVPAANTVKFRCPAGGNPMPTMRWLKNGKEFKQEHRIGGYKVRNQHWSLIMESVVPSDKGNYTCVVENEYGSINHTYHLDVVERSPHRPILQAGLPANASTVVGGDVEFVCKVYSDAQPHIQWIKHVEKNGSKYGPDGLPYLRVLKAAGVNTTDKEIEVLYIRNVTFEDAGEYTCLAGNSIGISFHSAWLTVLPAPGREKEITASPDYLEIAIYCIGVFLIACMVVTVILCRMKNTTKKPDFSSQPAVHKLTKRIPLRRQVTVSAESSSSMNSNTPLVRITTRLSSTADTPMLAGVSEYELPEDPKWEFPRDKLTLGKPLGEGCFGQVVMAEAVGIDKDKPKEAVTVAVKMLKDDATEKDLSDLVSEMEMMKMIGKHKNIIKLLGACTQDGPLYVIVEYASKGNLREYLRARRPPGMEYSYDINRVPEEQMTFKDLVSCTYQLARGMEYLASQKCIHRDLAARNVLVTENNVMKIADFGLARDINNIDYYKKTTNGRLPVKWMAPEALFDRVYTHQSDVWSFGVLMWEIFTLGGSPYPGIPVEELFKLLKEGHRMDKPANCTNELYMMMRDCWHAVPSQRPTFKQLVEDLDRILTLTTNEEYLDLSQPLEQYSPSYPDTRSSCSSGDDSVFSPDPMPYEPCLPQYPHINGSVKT
Summary of the method: (§1)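 Cells with FGFR aberrations (DMS114 FGFR1 amplification, RT112 FGFR3-TACC3 fusion, AN3CA FGFR2 K310R/N549K) exposed 3 h at 37 °C to compound, final 0.000038–10 μM (4-fold dilutions). pERK (Thr202/Tyr204) quantified by In-Cell ELISA chemiluminescence; IC50 from 4-parameter sigmoidal fit.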

Ba/F3 FGFR2-V564F = target: T2, Ba/F3 FGFR2-V564F (Homo sapiens, UniProt P21802, V564F, cells depend on it); experiment: 2D cell proliferation assay, Ba/F3 FGFR2-V564F; type: cell-based, mouse; conditions: 96 hours, CTG, read-out: Cell Line, IC50 Ba/F3 FGFR2-V564F
T2 construct: fused on or other part: Q9H694 (Protein bicaudal C homolog 1)
T2 sequence (P21802 whole entry V564F, the tested form may be a part): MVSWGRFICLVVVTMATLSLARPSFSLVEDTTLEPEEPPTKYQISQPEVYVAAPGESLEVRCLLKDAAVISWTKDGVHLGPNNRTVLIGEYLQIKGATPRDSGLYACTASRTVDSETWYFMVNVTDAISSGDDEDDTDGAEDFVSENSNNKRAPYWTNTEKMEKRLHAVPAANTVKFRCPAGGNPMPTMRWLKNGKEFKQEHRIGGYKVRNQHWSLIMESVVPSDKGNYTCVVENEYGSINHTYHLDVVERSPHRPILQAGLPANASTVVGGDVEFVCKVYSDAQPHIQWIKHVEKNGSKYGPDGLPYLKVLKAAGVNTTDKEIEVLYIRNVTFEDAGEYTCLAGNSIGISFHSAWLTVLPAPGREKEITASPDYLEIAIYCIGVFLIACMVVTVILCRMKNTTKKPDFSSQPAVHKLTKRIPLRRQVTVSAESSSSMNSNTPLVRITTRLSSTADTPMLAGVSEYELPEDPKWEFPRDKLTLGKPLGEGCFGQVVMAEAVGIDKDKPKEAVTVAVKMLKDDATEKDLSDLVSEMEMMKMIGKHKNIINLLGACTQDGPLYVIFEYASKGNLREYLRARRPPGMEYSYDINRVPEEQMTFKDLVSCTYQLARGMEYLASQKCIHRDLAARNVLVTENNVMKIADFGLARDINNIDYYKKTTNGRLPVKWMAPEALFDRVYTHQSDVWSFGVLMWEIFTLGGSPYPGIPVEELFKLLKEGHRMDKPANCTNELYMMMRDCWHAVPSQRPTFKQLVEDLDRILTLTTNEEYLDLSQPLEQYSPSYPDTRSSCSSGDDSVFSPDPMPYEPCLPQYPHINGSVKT
Experimental: (§2) Low IC50 values are indicative of the high potency of the FGFR inhibitor compounds in this assay selling. […] Cell proliferation assays are performed in two-dimensional (2D)) anchorage-dependent conditions in 96 well plates (Corning® Black/Clear flat Bottom, Cat #3603) with the following cell lines: • Ba/F3 FGFR2-BICC1 (human […]): Mouse Ba/F3 cell line stably expressed exogenous human FGFR2-BICC1 fusion gene bearing V546F mutation in FGFR2 Ba/F3; • FGFR2-BICC1 (human FGFR2/[…]): Mouse Ba/F3 cell line stably expressed exogenous human FGFR2-BICC1 fusion gene bearing N549K mutation in FGFR2; • Snu-16: human gastric cancer cell with FGFR2 amplification; • KATO III: human gastric cancer cell with FGFR2 amplification; • AN3CA: Human endometrial cancer with FGFR2 mutation (k310R, N549K); • MFM-223: Human breast cancer with FGFR1/2 amplification; • MFE-296: Human endometrial cancer with FGFR2 mutation (N549K); • MFE-280: Human endometrial cancer with FGFR2 mutation ([…]); • NCI-H1581: human non-small cell lung cancer with FGFR1 amplification; • KG-1a: Acute myelogenous leukemia with FGFR1OP2-FGFR1 translocation; • DMS114: human small cell carcinoma of the lung with FGFR1 amplification; • RT112: human bladder cancer with FGFR3 overexpression/FGFR3-TACC3 fusion; • SW780: human bladder cancer with FGFR3 overexpression/FGFR3-BALAP2L1 fusion; • Hep3B: Liver cancer with FGF19 amplification (FGFR4 ligand); • AGS: Human gastric adenocarcinoma with Kras G12D mutation and FGFR wild type; • PC-9: human non-small cell lung cancer (NSCLC) with wild-type FGFR and an EGFR del19 mutation; or • H1975: human non-small cell lung cancer (NSCLC) with wild-type FGFR and EGFR L858R/T790M mutation.
(§3) Cell lines are purchased from the American Type Culture Collection (ATCC) or Sigma. All cell lines are maintained in RPMI-1640 or DMEM supplemented with 10% heat-inactivated fetal bovine serum.
(§4) Cells growing in the log phase are detached with Gibco™ TrypLE™ Express Enzyme and plated in 96 well plate at 3000 to 5000 cells/well in 100 μl of media. After overnight incubation at 37° C., 5% CO2 incubator, cells are treated with compounds (50 uL/well) at the final concentrations spanning from 0.000038 uM to 10 μM (4-fold serial dilution for total of 10 points). Cells are incubated at 37° C., 5% CO2, and 95% humidity incubator for 96 hours. At the end of incubation 2D CTG reagent from Promega was added to each well according to vendors recommendation and mixed for 10 min in dark. The luminescence signals are determined with a Biotek™ plate reader. Data is fitted using a sigmoidal curve analysis program (GraphPad Prism®) with variable hill slope and IC50 is determined.

AN3CA = experiment: 2D cell proliferation assay, AN3CA; type: cell-based; conditions: Homo sapiens, AN3-CA, 96 hours, CTG, read-out: Cell Line, IC50 AN3CA
Experimental: as §2, §3, §4

KATO III = experiment: 2D cell proliferation assay, KATO III; type: cell-based; conditions: Homo sapiens, 96 hours, CTG, read-out: Cell Line, IC50 KATO III
Experimental: as §2, §3, §4

Ba/F3 FGFR2-N549K = target: T3, Ba/F3 FGFR2-N549K (Homo sapiens, UniProt P21802, N549K, cells depend on it); experiment: 2D cell proliferation assay, Ba/F3 FGFR2-N549K; type: cell-based, mouse; conditions: 96 hours, CTG, read-out: Cell Line, IC50 Ba/F3 FGFR2-N549K
T3 construct: fused on or other part: Q9H694 (Protein bicaudal C homolog 1)
T3 sequence (P21802 whole entry N549K, the tested form may be a part): as the sequence (P21802 whole entry V564F, the tested form may be a part) above, with N549K, F564V counted along it
Experimental: as §2, §3, §4

FGFR1 = target: T4, FGFR1 (Homo sapiens, UniProt P11362); experiment: pERK potency assay (In Cell ELISA), DMS114 cells; type: cell-based; conditions: DMS114 (FGFR1 amplification) cells, 3 hours
T4 construct: DMS114 (FGFR1 amplification); host or cells: DMS114
T4 sequence (P11362 22-822): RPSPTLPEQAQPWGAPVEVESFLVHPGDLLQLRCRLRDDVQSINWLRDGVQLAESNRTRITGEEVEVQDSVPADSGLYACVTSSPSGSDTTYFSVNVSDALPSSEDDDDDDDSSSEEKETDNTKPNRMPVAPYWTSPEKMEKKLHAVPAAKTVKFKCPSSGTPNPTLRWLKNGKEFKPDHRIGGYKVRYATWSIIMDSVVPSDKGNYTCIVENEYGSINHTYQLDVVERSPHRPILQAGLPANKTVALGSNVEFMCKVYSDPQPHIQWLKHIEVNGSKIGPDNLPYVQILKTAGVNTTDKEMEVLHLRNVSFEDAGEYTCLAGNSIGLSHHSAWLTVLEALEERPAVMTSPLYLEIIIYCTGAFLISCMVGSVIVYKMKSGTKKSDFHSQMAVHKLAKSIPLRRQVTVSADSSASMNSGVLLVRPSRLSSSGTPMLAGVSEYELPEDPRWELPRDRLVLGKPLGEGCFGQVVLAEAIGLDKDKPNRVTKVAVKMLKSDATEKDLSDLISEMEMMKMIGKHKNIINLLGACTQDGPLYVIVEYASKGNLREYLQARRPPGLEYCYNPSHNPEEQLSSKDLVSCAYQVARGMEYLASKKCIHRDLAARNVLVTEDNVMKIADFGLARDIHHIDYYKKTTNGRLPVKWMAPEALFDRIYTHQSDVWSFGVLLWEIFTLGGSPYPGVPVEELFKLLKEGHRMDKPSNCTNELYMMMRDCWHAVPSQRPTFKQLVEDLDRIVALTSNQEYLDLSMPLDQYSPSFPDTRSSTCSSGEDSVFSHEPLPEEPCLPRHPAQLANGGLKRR
Summary of the method: as §1

SNU-16 = experiment: 2D cell proliferation assay, SNU-16; type: cell-based; conditions: Homo sapiens, 96 hours, CTG, read-out: Cell Line, IC50 SNU-16
Experimental: as §2, §3, §4

FGFR3 = target: T5, FGFR3 (Homo sapiens, UniProt P22607); experiment: pERK potency assay (In Cell ELISA), RT112 cells; type: cell-based; conditions: RT112 (FGFR3 overexpression/FGFR3-TACC3 fusion) cells, 3 hours
T5 construct: RT112 (FGFR3 overexpression/FGFR3-TACC3 fusion); host or cells: RT112; the other entry of the earlier key: TACC3 (Q9Y6A5, Transforming acidic coiled-coil-containing protein 3)
Summary of the method: as §1

IC50 (FGFR2) [nM] | GI50 (Ba/F3 FGFR2-V564F) [nM] | GI50 (Ba/F3 FGFR2-N549K) [nM] | IC50 (FGFR1) [nM] | IC50 (SNU-16) [nM] | IC50 (FGFR3) [nM] | Compound | FGFR1 IC50/FGFR2 IC50 (FGFR2) | FGFR3 IC50/FGFR2 IC50 (FGFR2) | IC50 (AN3CA) [nM] | IC50 (KATO III) [nM]
1 to 10 | 10 to 30 | 1 to 10 | > 100 | 10 to 30 | > 100 | C=CC(=O)N1CCC2(CC=C(c3c(-c4ccc(OC)nc4)c4c(N)ncnc4n3C)CC2)CC1C (stereo not drawn) [Example 39, 1-(9-(4-amino-5-(6-methoxypyridin-3-yl)-7-methyl-7H-pyrrolo[2,3-d]pyrimidin-6-yl)-2-methyl-3-azaspiro[5.5]undec-8-en-3-yl)prop-2-en-1-one] | G (a selectivity ratio greater than 150 but less than or equal to 500) | I (a selectivity ratio greater than 1000 but less than or equal to 2000) | 10 to 30 | 10 to 30
≤ 1 | 1 to 10 | 1 to 10 | > 100 | 10 to 30 | > 100 | C=CC(=O)N1CCC2(CC=C(c3c(-c4ncc(C(F)(F)F)cn4)c4c(N)ncnc4n3C)CC2)CC1 [Example 42, 1-(9-(4-amino-7-methyl-5-(5-(trifluoromethyl)pyrimidin-2-yl)-7H-pyrrolo[2,3-d]pyrimidin-6-yl)-3-azaspiro[5.5]undec-8-en-3-yl)prop-2-en-1-one] | J (a selectivity ratio greater than 2000) | J (a selectivity ratio greater than 2000) | 10 to 30 | 10 to 30
≤ 1 | 1 to 10 | 1 to 10 | > 100 | 10 to 30 | > 100 | C=CC(=O)N1CCC2(CC=C(c3c(-c4ncc(C#N)cn4)c4c(N)ncnc4n3C)CC2)CC1 [Example 51, 2-(6-(3-acryloyl-3-azaspiro[5.5]undec-8-en-9-yl)-4-amino-7-methyl-7H-pyrrolo[2,3-d]pyrimidin-5-yl)pyrimidine-5-carbonitrile] | J (a selectivity ratio greater than 2000) | J (a selectivity ratio greater than 2000) | 30 to 100 | 10 to 30
≤ 1 | ≤ 1 | 1 to 10 | > 100 | 1 to 10 | > 100 | C=CC(=O)N1CCC2(CC=C(c3c(-c4ncc(C(F)F)cn4)c4c(N)ncnc4n3C)CC2)CC1 [Example 56, 1-(9-(4-amino-5-(5-(difluoromethyl)pyrimidin-2-yl)-7-methyl-7H-pyrrolo[2,3-d]pyrimidin-6-yl)-3-azaspiro[5.5]undec-8-en-3-yl)prop-2-en-1-one] | G (a selectivity ratio greater than 150 but less than or equal to 500) | I (a selectivity ratio greater than 1000 but less than or equal to 2000) | ≤ 1 | 1 to 10

The next lines start with the compound.

Compound | IC50 (FGFR2) [nM] | GI50 (Ba/F3 FGFR2-V564F) [nM] | GI50 (Ba/F3 FGFR2-N549K) [nM] | IC50 (FGFR1) [nM] | IC50 (SNU-16) [nM] | IC50 (FGFR3) [nM] | FGFR1 IC50/FGFR2 IC50 (FGFR2) | FGFR3 IC50/FGFR2 IC50 (FGFR2) | IC50 (AN3CA) [nM] | IC50 (KATO III) [nM]
C=CC(=O)N1CCC2(CC=C(c3c(-c4cnc(OC5CC5)c(F)c4)c4c(N)ncnc4n3C)CC2)CC1 [Example 23, 1-(9-(4-amino-5-(6-cyclopropoxy-5-fluoropyridin-3-yl)-7-methyl-7H-pyrrolo[2,3-d]pyrimidin-6-yl)-3-azaspiro[5.5]undec-8-en-3-yl)prop-2-en-1-one] | 1 to 10 | 10 to 30 | 1 to 10 | > 100 | 1 to 10 | > 100 | G (a selectivity ratio greater than 150 but less than or equal to 500) | H (a selectivity ratio greater than 500 but less than or equal to 1000) | 10 to 30 | 1 to 10
C=CC(=O)N1CCC2(CC=C(c3c(-c4ccc(OC5CCCC5)nc4)c4c(N)ncnc4n3C)CC2)CC1 [Example 24, 1-(9-(4-amino-5-(6-(cyclopentyloxy)pyridin-3-yl)-7-methyl-7H-pyrrolo[2,3-d]pyrimidin-6-yl)-3-azaspiro[5.5]undec-8-en-3-yl)prop-2-en-1-one] | 1 to 10 | 30 to 100 | 1 to 10 | > 100 | 10 to 30 | > 100 | F (a selectivity ratio greater than 50 but less than or equal to 150) | F (a selectivity ratio greater than 50 but less than or equal to 150) | 10 to 30 | 10 to 30
C=CC(=O)N1CCC2(CC=C(c3c(-c4ccc(OC5CCC5)nc4)c4c(N)ncnc4n3C)CC2)CC1 [Example 26, 1-(9-(4-amino-5-(6-cyclobutoxypyridin-3-yl)-7-methyl-7H-pyrrolo[2,3-d]pyrimidin-6-yl)-3-azaspiro[5.5]undec-8-en-3-yl)prop-2-en-1-one] | 1 to 10 | 1 to 10 | 1 to 10 | > 100 | 1 to 10 | > 100 | F (a selectivity ratio greater than 50 but less than or equal to 150) | G (a selectivity ratio greater than 150 but less than or equal to 500) | 10 to 30 | 1 to 10
C=CC(=O)N1CCC2(CC=C(c3c(-c4cnc(OC)c(F)c4)c4c(N)ncnc4n3C)CC2)CC1 [Example 28, 1-(9-(4-amino-5-(5-fluoro-6-methoxypyridin-3-yl)-7-methyl-7H-pyrrolo[2,3-d]pyrimidin-6-yl)-3-azaspiro[5.5]undec-8-en-3-yl)prop-2-en-1-one] | 1 to 10 | 10 to 30 | 1 to 10 | > 100 | 1 to 10 | > 100 | F (a selectivity ratio greater than 50 but less than or equal to 150) | G (a selectivity ratio greater than 150 but less than or equal to 500) | 10 to 30 | 1 to 10
C=CC(=O)N1CCC2(CC=C(c3c(-c4ncccn4)c4c(N)ncnc4n3C)CC2)CC1 [Example 33, 1-(9-(4-amino-7-methyl-5-(pyrimidin-2-yl)-7H-pyrrolo[2,3-d]pyrimidin-6-yl)-3-azaspiro[5.5]undec-8-en-3-yl)prop-2-en-1-one] | 1 to 10 | ≤ 1 | 1 to 10 | > 100 | 1 to 10 | > 100 | G (a selectivity ratio greater than 150 but less than or equal to 500) | I (a selectivity ratio greater than 1000 but less than or equal to 2000) | 10 to 30 | 1 to 10
